Data from the supplement of paper PMC4862054.

Columns and labels:
Details in all cases: incubation time: 72 h
CAL-51 [1] = assay: normalised viability (% of control), CellTiter-Blue; higher = more viable cells (100 = DMSO, 0 = benzethonium chloride kill control)
Protocol: (§1)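 DSRT, CellTiter-Blue viability, 72 h incubation. Signal is normalised to DMSO and benzethonium chloride controls. Value is the normalised response at dose 1.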

HCC1937 [2] = assay: as above
Protocol: as §1

Hs578T [3] = assay: as above
Protocol: as §1

MDA-MB-468 [4] = assay: as above
Protocol: as §1

HCC1599 [5] = assay: as above
Protocol: as §1

HCC1143 [6] = assay: as above
Protocol: as §1

MDA-MB-436 [7] = assay: as above
Protocol: as §1

MDA-MB-231 [8] = assay: as above
Protocol: as §1

CAL-120 [9] = assay: as above
Protocol: as §1

HDQ-P1 [10] = assay: as above
Protocol: as §1

MDA-MB-453 [11] = assay: as above
Protocol: as §1

BT-474 [12] = assay: as above
Protocol: as §1

CAL-85-1 [13] = assay: as above
Protocol: as §1

SK-BR-3 [14] = assay: as above
Protocol: as §1

CAL-148 [15] = assay: as above
Protocol: as §1

DU-4475 [16] = assay: as above
Protocol: as §1

BT-549 [17] = assay: as above
Protocol: as §1

MFM-223 [18] = assay: as above
Protocol: as §1

CAL-51 [19] = assay: normalised response (% of control), CellTiter-Glo; higher = more viable cells (100 = DMSO, 0 = benzethonium chloride kill control)
Procedure, shortened: (§2)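 The table gives the normalised signal for a single concentration in each entry. Breast cancer cell lines were seeded (20 µl suspension) into 384-well plates holding compound at 5 concentrations in 10-fold steps over a compound-specific 10,000-fold range and incubated 72 h, then read for CellTox Green fluorescence (485/520 nm) and CellTiter-Glo luminescence. Normalisation on each plate used 0.1 % DMSO (100) and a positive kill control (0).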

HCC1937 [20] = assay: as above
Procedure, shortened: as §2

Hs578T [21] = assay: as above
Procedure, shortened: as §2

MDA-MB-468 [22] = assay: as above
Procedure, shortened: as §2

HCC1599 [23] = assay: as above
Procedure, shortened: as §2

MCF-10A = assay: as above
Procedure, shortened: as §2

HCC1143 [24] = assay: as above
Procedure, shortened: as §2

MDA-MB-436 [25] = assay: as above
Procedure, shortened: as §2

MDA-MB-231 [26] = assay: as above
Procedure, shortened: as §2

CAL-120 [27] = assay: as above
Procedure, shortened: as §2

HDQ-P1 [28] = assay: as above
Procedure, shortened: as §2

MDA-MB-453 [29] = assay: as above
Procedure, shortened: as §2

BT-474 [30] = assay: as above
Procedure, shortened: as §2

CAL-85-1 [31] = assay: as above
Procedure, shortened: as §2

SK-BR-3 [32] = assay: as above
Procedure, shortened: as §2

CAL-148 [33] = assay: as above
Procedure, shortened: as §2

DU-4475 [34] = assay: as above
Procedure, shortened: as §2

BT-549 [35] = assay: as above
Procedure, shortened: as §2

MFM-223 [36] = assay: as above
Procedure, shortened: as §2

SMILES | normalised viability (CAL-51 [1]) | normalised viability (HCC1937 [2]) | normalised viability (Hs578T [3]) | normalised viability (MDA-MB-468 [4]) | normalised viability (HCC1599 [5]) | normalised viability (HCC1143 [6]) | normalised viability (MDA-MB-436 [7]) | normalised viability (MDA-MB-231 [8]) | normalised viability (CAL-120 [9]) | normalised viability (HDQ-P1 [10]) | normalised viability (MDA-MB-453 [11]) | normalised viability (BT-474 [12]) | normalised viability (CAL-85-1 [13]) | normalised viability (SK-BR-3 [14]) | normalised viability (CAL-148 [15]) | normalised viability (DU-4475 [16]) | normalised viability (BT-549 [17]) | normalised viability (MFM-223 [18]) | normalised response (CAL-51 [19]) | normalised response (HCC1937 [20]) | normalised response (Hs578T [21]) | normalised response (MDA-MB-468 [22]) | normalised response (HCC1599 [23]) | normalised response (MCF-10A) | normalised response (HCC1143 [24]) | normalised response (MDA-MB-436 [25]) | normalised response (MDA-MB-231 [26]) | normalised response (CAL-120 [27]) | normalised response (HDQ-P1 [28]) | normalised response (MDA-MB-453 [29]) | normalised response (BT-474 [30]) | normalised response (CAL-85-1 [31]) | normalised response (SK-BR-3 [32]) | normalised response (CAL-148 [33]) | normalised response (DU-4475 [34]) | normalised response (BT-549 [35]) | normalised response (MFM-223 [36])
CC[C@]1(O)C[C@@H]2CN(CCc3c([nH]c4ccccc34)[C@@](C(=O)OC)(c3cc4c(cc3OC)N(C)[C@H]3[C@@](O)(C(=O)OC)[C@H](OC(C)=O)[C@]5(CC)C=CCN6CC[C@]43[C@@H]65)C2)C1 [Vinblastine] (0.1 nM) | 114% | 97.1% | 103% | 98.8% | 90.7% | 78.6% | 103% | 83.1% | 82.1% | 102% | 98.5% | 87.9% | 85.8% | 85.8% | 92.5% | 104% | 96.6% | 90% | 103% | 93.9% | 99.5% | 98.8% | 106% | 101% | 99% | 95.8% | 94.9% | 95.9% | 99.4% | 103% | 96.2% | 97.4% | 100% | 96.6% | 101% | 102% | 93.1%
Nc1nc(Cl)nc2c1ncn2[C@H]1C[C@H](O)[C@@H](CO)O1 [Cladribine] (0.1 nM) | 112% | 86.8% | 108% | 98.4% | 88.7% | 91.8% | 107% | 74.9% | 98.3% | 109% | 112% | 75.1% | 85.4% | 95.5% | 117% | 99.2% | 85.4% | 89.3% | 114% | 101% | 105% | 101% | 91.3% | 106% | 105% | 148% | 102% | 94.3% | 96.3% | 105% | 99.6% | 99.8% | 100% | 97.7% | 105% | 109% | 106%
Cc1ccc(F)c(NC(=O)Nc2ccc(-c3cccc4[nH]nc(N)c34)cc2)c1 [Linifanib] (0.1 nM) | 101% | 92.4% | 99.3% | 130% | 110% | 116% | 149% | 100% | 95.4% | 115% | 112% | 116% | 94.7% | 107% | 117% | 110% | 109% | 103% | 105% | 102% | 100% | 102% | 115% | 105% | 100% | 107% | 102% | 101% | 102% | 122% | 107% | 98.8% | 112% | 112% | 105% | 97% | 105%
COc1cccc2c1C(=O)c1c(O)c3c(c(O)c1C2=O)C[C@@](O)(C(=O)CO)C[C@@H]3O[C@H]1C[C@H](N)[C@H](O)[C@H](C)O1 [Doxorubicin] (0.1 nM) | 102% | 86.4% | 110% | 104% | 82.8% | 91.2% | 112% | 96.8% | 86.9% | 98.5% | 102% | 79.6% | 84.6% | 90.3% | 97.8% | 102% | 95% | 95.6% | 99.3% | 101% | 101% | 103% | 119% | 98.8% | 102% | 101% | 105% | 100% | 102% | 120% | 107% | 105% | 107% | 103% | 104% | 105% | 104%
CS(=O)(=O)c1ccc(C(=O)Nc2ccc(Cl)c(-c3ccccn3)c2)c(Cl)c1 [Vismodegib] (1 nM) | 108% | 103% | 115% | 99.6% | 105% | 94.9% | 94.2% | 100% | 86.2% | 75.3% | 103% | 103% | 104% | 93.7% | 94.9% | 103% | 88.3% | 96% | 120% | 92.3% | 95.9% | 98.7% | 101% | 94% | 94.3% | 100% | 95.5% | 92.8% | 96.7% | 89.3% | 90.9% | 99.2% | 91.6% | 103% | 98.9% | 93.1% | 86.8%
Cc1c2oc3c(C)ccc(C(=O)N[C@@H]4C(=O)N[C@H](C(C)C)C(=O)N5CCC[C@H]5C(=O)N(C)CC(=O)N(C)[C@@H](C(C)C)C(=O)O[C@@H]4C)c3nc-2c(C(=O)N[C@@H]2C(=O)N[C@H](C(C)C)C(=O)N3CCC[C@H]3C(=O)N(C)CC(=O)N(C)[C@@H](C(C)C)C(=O)O[C@@H]2C)c(N)c1=O [Dactinomycin] (0.1 nM) | 94% | 78.5% | 125% | 92.2% | 79.1% | 93.7% | 94.9% | 91.6% | 95.6% | 108% | 94.6% | 95.7% | 97.2% | 96% | 90.5% | 90.5% | 91.3% | 104% | 101% | 95.9% | 110% | 92.2% | 90.6% | 104% | 106% | 123% | 102% | 94.2% | 93.1% | 102% | 96% | 107% | 99% | 97.4% | 103% | 99.8% | 104%
COc1cccc2cc(-c3nc([C@H]4CC[C@H](C(=O)O)CC4)n4ncnc(N)c34)[nH]c12 [OSI-027] (1 nM) | 90.3% | 88.9% | 118% | 90.7% | 110% | 105% | 93.8% | 83.6% | 96.8% | 76.9% | 88.8% | 85.3% | 100% | 86.9% | 96.1% | 87.8% | 93.9% | 95.9% | 88% | 97.1% | 97.9% | 90.1% | 101% | 91.4% | 92.8% | 86.8% | 93.9% | 102% | 96.3% | 95.4% | 95.8% | 101% | 91.1% | 98.7% | 91.7% | 95.5% | 90.5%
